SMILES strings stand for the structures. Bounds are passed on as bounds.

For one experiment, the target named is Cathepsin S (Homo sapiens, UniProt P25774). As to the kind of experiment: Cathepsin IC50, cathepsin S. In kind it is biochemical.
The target in a further experiment is T1, USP30 (Homo sapiens, UniProt Q70CQ3).
T1 construct: purchased Boston Biochem E582
T1 sequence (Q70CQ3 57-517 limits assumed): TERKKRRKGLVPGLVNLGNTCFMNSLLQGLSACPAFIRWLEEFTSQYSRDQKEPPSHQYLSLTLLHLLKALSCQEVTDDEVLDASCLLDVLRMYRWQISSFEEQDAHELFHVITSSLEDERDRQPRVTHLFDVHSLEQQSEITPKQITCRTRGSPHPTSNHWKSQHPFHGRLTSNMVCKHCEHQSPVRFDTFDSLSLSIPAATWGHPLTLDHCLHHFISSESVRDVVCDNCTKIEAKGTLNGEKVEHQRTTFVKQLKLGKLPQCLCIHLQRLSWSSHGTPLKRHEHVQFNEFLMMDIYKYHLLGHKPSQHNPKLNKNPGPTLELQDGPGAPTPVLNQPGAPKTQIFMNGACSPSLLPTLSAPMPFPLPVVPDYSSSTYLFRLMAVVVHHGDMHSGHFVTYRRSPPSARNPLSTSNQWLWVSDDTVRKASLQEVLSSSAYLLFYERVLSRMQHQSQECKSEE
As to the kind of experiment: USP30 biochemical IC50 assay (fluorescence polarisation). The conditions noted are these: for IC50: USP30 biochemical IC50 assay, exemplary compounds, read-out: IC50; for fold more potent against USP30 than Reference Example A: v Reference Example A; for fold more potent against USP30 than Reference Example E: v Reference Example E; for fold more potent against USP30 than Reference Example F: v Reference Example F; for fold more potent against USP30 than Reference Example G: v Reference Example G. The procedure: Dilution plates were prepared at 21 times the final concentration (2100 μM for a final concentration of 100 μM) in 50% DMSO in a 96-well polypropylene V-bottom plate (Greiner #651201). A typical 8-point dilution series would be 100, 30, 10, 3, 1, 0.3, 0.1, 0.03 μM final. Reactions were performed in duplicate in black 384 well plates (small volume, Greiner 784076) in a final reaction volume of 21 μl. Either […] of 50% DMSO or diluted compound was added to the plate. USP30 (Boston Biochem #E582) was diluted in reaction buffer (40 mM Tris, pH 7.5, 0.005% Tween 20, 0.5 mg/ml BSA, 5 mM beta-mercaptoethanol) to achieve a final assay concentration of 4 nM, and 10 μl of diluted USP30 was added to the compound. Enzyme and compound were incubated for 30 min at room temp. Reactions were initiated by the addition of 50 nM of TAMRA labelled peptide linked to ubiquitin via an iso-peptide bond as fluorescence polarisation substrate. Reactions were read immediately after addition of substrate and following a 2-hour incubation at room temperature. Readings were performed on a Pherastar Plus (BMG Labtech). λ Excitation 540 nm; λ Emission 590 nm.

The target in a further experiment is Cathepsin L (Homo sapiens, UniProt P07711). As to the kind of experiment: Cathepsin IC50, cathepsin L. Type of experiment: biochemical.
Sequence of Cathepsin L (P07711 114-333, species assumed): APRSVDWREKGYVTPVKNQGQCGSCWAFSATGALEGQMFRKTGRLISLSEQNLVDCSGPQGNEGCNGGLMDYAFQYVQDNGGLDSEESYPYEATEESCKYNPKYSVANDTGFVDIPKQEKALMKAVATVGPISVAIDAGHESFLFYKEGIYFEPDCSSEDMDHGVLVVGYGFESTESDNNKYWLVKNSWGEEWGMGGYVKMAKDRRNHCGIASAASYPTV
The next experiment has as its target T2, UCHL1 (Homo sapiens, UniProt P09936).
T2 sequence (P09936 1-223): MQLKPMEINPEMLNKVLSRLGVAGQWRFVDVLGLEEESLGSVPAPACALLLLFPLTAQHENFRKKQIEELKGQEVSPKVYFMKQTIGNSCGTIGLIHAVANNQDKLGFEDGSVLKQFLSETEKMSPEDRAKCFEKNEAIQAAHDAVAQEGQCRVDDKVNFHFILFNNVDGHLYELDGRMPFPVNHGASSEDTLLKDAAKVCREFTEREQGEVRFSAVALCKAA
Briefly: DUB biochemical IC50 assay, UCHL1.

A further experiment addresses Cathepsin B (Homo sapiens, UniProt P07858). Briefly: Cathepsin IC50, cathepsin B. In kind it is biochemical.
A further experiment has as its system Cathepsins B, K, L, S, V. Briefly: Cathepsin IC50, range over B, K, L, S, V. Type of experiment: biochemical. As to conditions: for Selectivity preference for USP30 v cathepsins: range over cathepsins B, K, L, S; for IC50: range over the five cathepsins.
Another experiment addresses T3, Endogenous USP30 (Homo sapiens, UniProt Q70CQ3).
T3 construct: USP30 endogenous cellular target engagement western blot (WB) assay; endogenous in cells; host or cells: HeLa stably overexpressing YFP-Parkin
T3 sequence (Q70CQ3 1-517): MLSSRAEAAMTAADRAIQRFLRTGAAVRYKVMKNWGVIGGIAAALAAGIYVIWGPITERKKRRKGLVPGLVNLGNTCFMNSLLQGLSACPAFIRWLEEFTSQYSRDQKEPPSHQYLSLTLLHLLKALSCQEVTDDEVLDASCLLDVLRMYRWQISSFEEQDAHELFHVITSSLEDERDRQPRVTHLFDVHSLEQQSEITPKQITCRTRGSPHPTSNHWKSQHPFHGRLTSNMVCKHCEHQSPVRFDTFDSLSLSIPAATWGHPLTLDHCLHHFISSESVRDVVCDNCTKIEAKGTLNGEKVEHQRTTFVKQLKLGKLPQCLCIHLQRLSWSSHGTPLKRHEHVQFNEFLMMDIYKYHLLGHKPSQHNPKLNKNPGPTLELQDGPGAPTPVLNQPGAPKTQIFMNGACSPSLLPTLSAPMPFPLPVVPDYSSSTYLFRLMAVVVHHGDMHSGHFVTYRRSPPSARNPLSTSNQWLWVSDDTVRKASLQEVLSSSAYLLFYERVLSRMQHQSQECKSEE
Briefly: USP30 endogenous cellular target engagement western blot assay (Cell TE WB). Type of experiment: cell-based. As to conditions: Hela cells stably overexpressing YFP-Parkin, 1 hour. The procedure: Hela cells stably overexpressing YFP-Parkin were seeded into 6 well dishes. Once adhered, cells were treated with appropriate concentrations of test compounds or vehicle control for 1 hour at 37° C., 5% CO2. Whole cell lysates were prepared by scraping the cells into cold PBS, centrifuging and lysing in lysis buffer (50 mM Tris-base, pH 7.5, 50 mM NaCl, 1% NP-40/Igepal CA-630, 2 mM MgCl2, 10% Glycerol, 5 mM beta-mercaptoethanol, cOmplete mini tablets EDTA free (Roche), PhosStop tablets (Roche)) for 10 mins. The equivalent of 20 μg of protein from the cleared cell lysate was incubated with a final conc of 2.5 μM HA-Ahx-Ahx-Ub-VME probe at room temperature. The reaction was stopped by addition of 5×SDS sample loading buffer and proteins separated by SDS PAGE and western blotting. USP30 was detected using an anti-USP30 Sheep S746D antibody (MRC PPU Reagents and Services) and a rabbit anti sheep secondary IgG (H+L) horseradish peroxidase conjugated (Thermo #31480) and visualised using ECL reagent (GE #RPN2109) on a GE LAS4000 imager. Target engagement was measured by quantitation of the bands corresponding to USP30 and USP30 bound to the Ub-VME probe and expression of this proportion compared to vehicle treated control.
Cell TE WB: USP30 endogenous cellular target engagement western blot (WB) assay. Assays the activity of compounds against USP30 in cells using an irreversible activity probe to monitor USP30 activity.

Sequence of Cathepsin S (P25774 115-331, species assumed): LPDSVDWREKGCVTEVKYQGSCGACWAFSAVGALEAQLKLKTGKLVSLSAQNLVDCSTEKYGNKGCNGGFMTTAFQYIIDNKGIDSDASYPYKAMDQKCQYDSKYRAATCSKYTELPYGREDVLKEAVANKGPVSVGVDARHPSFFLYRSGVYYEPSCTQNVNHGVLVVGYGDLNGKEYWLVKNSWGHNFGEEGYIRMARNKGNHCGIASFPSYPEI

For orientation: IC50 means the concentration that gives 50% inhibition. By EC50 is commonly meant the concentration at which the effect is half-maximal. A high value points to a need for much substance. For the compound `C[C@@H]1C[C@@H](NC(=O)c2nnc(-c3cccc(C#N)c3)o2)CN1C#N` [Example 1, N-((3R,5R)-1-Cyano-5-methylpyrrolidin-3-yl)-5-(3-cyanophenyl)-1,3,4-oxadiazole-2-carboxamide], the IC50 on Cathepsin S was > 300 µM; on USP30 it was 0.029 µM; at Cathepsin L it was 30.9 µM; against UCHL1, > 300 µM; at Cathepsin B, 154 µM; in the experiment on Cathepsins B, K, L, S, V, 26.2 to 300 µM. The “fold more potent against USP30 than Reference Example A” value at USP30 (biochemical assay) is listed as 2.4 fold. The “fold more potent against USP30 than Reference Example E” value on USP30 (biochemical assay) was 10.7 fold. Also, at USP30 (biochemical assay), the “fold more potent against USP30 than Reference Example F” value stood at 24 fold. Moreover, the “fold more potent against USP30 than Reference Example G” value on USP30 (biochemical assay) is listed as 152 fold. For the same compound, the “fold more selective for USP30 over cathepsin L than A” value on Cathepsin L (v Reference Example A) amounted to 27 fold. On Cathepsin L (v Reference Example B), the “fold more selective for USP30 over cathepsin L than B” value stood at 59 fold. Also, the “fold more selective for USP30 over cathepsin L than C” value at Cathepsin L (v Reference Example C) is reported as 18 fold. Also, the “fold more selective for USP30 over cathepsin L than D” value on Cathepsin L (v Reference Example D) is given as 19 fold. Besides, the “fold more selective for USP30 over cathepsin L than E” value at Cathepsin L (v Reference Example E) came out at 333 fold. At Cathepsin L (v Reference Example F), the “fold more selective for USP30 over cathepsin L than F” value was 3135 fold. The “DUB selectivity preference for USP30 v UCHL1” value at UCHL1 is recorded as 10300. In the experiment on Cathepsins B, K, L, S, V, the “Selectivity preference for USP30 v cathepsins” value is given as 900-10300. The same compound displayed a 50% effective concentration (EC50) at Endogenous USP30 of 0.064 µM.
In the case of `N#Cc1cccc(-c2nnc(C(=O)N[C@@H]3C[C@@H](CF)N(C#N)C3)o2)c1` [Example 3, N-((3R,5S)-1-Cyano-5-(fluoromethyl)pyrrolidin-3-yl)-5-(3-cyanophenyl)-1,3,4-oxadiazole-2-carboxamide], the IC50 on Cathepsin S was determined as 256 µM. For the same compound, the IC50 on USP30 came out at 0.013 µM. Also, at USP30 (biochemical assay), the “fold more potent against USP30 than Reference Example A” value turned out to be 5.4 fold, the “fold more potent against USP30 than Reference Example E” value came out at 24 fold, the “fold more potent against USP30 than Reference Example F” value stood at 54 fold and the “fold more potent against USP30 than Reference Example G” value came out at 338 fold. Besides, on USP30 (biochemical assay, v Reference Example B), the “fold more potent against USP30 than Reference Example B” value was 3.4 fold. Also, the “fold more potent against USP30 than Reference Example C” value at USP30 (biochemical assay, v Reference Example C) is on record as 2 fold. Also, at USP30 (biochemical assay, v Reference Example D), the “fold more potent against USP30 than Reference Example D” value was found to be 3.2 fold. The same compound came in with an IC50 on Cathepsin L of 9.9 µM. Also, at UCHL1, the “DUB selectivity preference for USP30 v UCHL1” value amounted to 15400 and inhibition was half-maximal at 200 µM (IC50). Further, at Cathepsin B, the IC50 was 29.4 µM. In the experiment with Cathepsins B, K, L, S, V, the “Selectivity preference for USP30 v cathepsins” value was 760-19700 and the IC50 was 9.9 to 256 µM. The compound also showed an EC50 at Endogenous USP30 of 0.037 µM.

Values taken from patent US20220315572A1, “SUBSTITUTED CYANOPYRROLIDINES WITH ACTIVITY AS USP30 INHIBITORS” (MISSION THERAPEUTICS LIMITED, priority 2019, published 2022).
